Experimental data from patent publication US20240226234A1, “WNT5A PEPTIDES FOR THE TREATMENT OF ACUTE M[…]” (W[…], priority 2021, published 2024).
No end group written: not given here. *: point of attachment. For = O=C*

Experiments:
Assay type in all cases: cell-based, human
HL60 cells [1] = experiment: Transwell chemotaxis assay toward CXCL12, HL60 cells; conditions: HL60, Foxy-5 100 μM 72 h pretreatment, CXCL12 100 ng/mL, 24 h
Protocol: (§1) Leukemic cell lines, pretreated or not with Foxy-5 (72 hours of stimulation) were tested for chemotaxis in Transwell-based assays for Chemotaxis (6.5 mm diameter, 8 μm pore size; Corning). Polycarbonate membranes were incubated with poly-L-lysine (1 mg/mL) for 1 hour at 37° C. followed by saline buffer washing. Briefly, cells were collected, washed with media containing bovine serum albumin (0.1% BSA; Sigma), and then seeded at a density of 5×10^5 cells into the upper chamber of the transwell. The lower chamber was filled with media containing 0.5% BSA (negative control), media containing 10% FBS (positive control) and media 5 containing 0.5% BSA with CXCL12 (100 ng/ml; Peprotech) (Melo et al., 2014). Following 6 h or 24 h of incubation at 37° C., cells that migrated into the lower chamber were collected, centrifuged, resuspended in saline buffer and counted. The number of migrated cells was expressed as a percentage of the input, i.e., the cells number applied directly to the lower compartment in parallel wells. The migration of cells was normalized to 100%+/−standard deviation (SD) of triplicates (Favaro et al., 2013).
(§2) We investigated whether restoring of WNT5A could enable the modulation CXCL12-induced chemotaxis of leukemia cells. […]

PI3K and MAPK pathways = experiment: Western blot of PI3K and MAPK pathway proteins, U937 cells; conditions: U937, Foxy-5 50 μM or 100 μM, 72 h
Protocol: Equal amounts of protein were resolved by sodium dodecyl sulphate-polyacrylamide gel electrophoresis and transferred onto nitrocellulose membranes (Millipore). Detection was carried out with the chemiluminescent substrate using an ECL Plus (GE-Healthcare). Monoclonal antibodies against P70S6K (sc-8418) and polyclonal antibodies against Actin (sc-1616), AKT1/2/3 (sc-8312), BAX (sc-493), BCL-XL (sc-8392), GAPDH (sc-32,233), p-AKT1/2/3 (sc-33,437) and p-P70S6K (sc-7984) were purchased from Santa Cruz Biotechnology. ERK1/2 ([pT185/Y187]; 44-680G) and ERK1/2 (44-654G) from Invitrogen. Quantitative blots were carried out using the UN-SCAN-IT densitometer software.
Based on the above results, the activity of proteins of PI3K and MAPK pathways were then investigated in a western blot. Briefly, U937 and K562 cells were seeded and treated with Foxy-5 (50 μM or 100 μM) or vehicle for 72 hours. Then, equal amounts of protein were used for total extracts followed by electrophoresis on 12% SDS polyacrylamide gels under reducing conditions, transferred to nitrocellulose membranes, blocked with 10% skimmed milk in TBS-0.1% Tween for 1 hour, stained with appropriate primary and secondary antibodies. The membranes were visualized with chemiluminescence using an ECL Plus (GE-Healthcare). Quantitative analyses of the optical intensities of the protein bands were determined with Un-Scan-It Gel 6.1 (Silk Scientific Inc.).

KG1a cells = experiment: Cell growth assay, KG1a cells; conditions: Foxy-5 100 μM, 72 h
Protocol: (§3) A panel of human myeloid leukemia cell lines (HL60, K562, KG1a, THP1 and U937) and HS-5 mesenchymal stromal cells lineage were cultured in Roswell Park Memorial Institute medium-1640 (RPMI; Sigma) containing 10% Fetal Bovine Serum (Gibco), glutamine (2 mM; Sigma), penicillin (100 μg/mL; Sigma), streptomycin (100 μg/mL; Sigma), and amphotericin B (0.25 μg/mL; Gibco). The cells were maintained in a humidified atmosphere at 37° C. and 5% CO2 and the experiments were performed when they reached exponential growth. For the assays, cells were seeded on a 24-well plate and treated or not with Foxy-5 for 72 hours.
(§4) Cells treated with Foxy or with vehicle were collected and cell number was evaluated by manual counting in monoculture and by microscopy with Image J software analysis in 2D culture.
(§5) Next, we evaluated the proliferation rates since this process is modulated by ROS. We treated the cells with Foxy-5 (100 μM) or with vehicle (DMSO) during 72 hours, and then cell growth was analyzed by counting the cells in monoculture, manually, or by the Image J software analysis of the 2D cultures. […] Similar results were obtained in the 2D culture system using leukemia cells and HS-5 mesenchymal stromal cells.

HL60 cells [2] = experiment: Cell growth assay, HL60 cells; conditions: Foxy-5 100 μM, 72 h
Protocol: as §3, §4, §5

U937 cells = experiment: Transwell chemotaxis assay toward CXCL12, U937 cells; conditions: U937, Foxy-5 100 μM 72 h pretreatment, CXCL12 100 ng/mL, 24 h
Protocol: as §1, §2

Foxy-5: Formylated hexapeptide fragment of WNT5A: MDGCEL (SEQ. ID. NO. 3) with methionine in position 1 as N-formyl methionine; WNT5A-mimicking compound (For-MDGCEL; listed as Homo sapiens)
CXCL12-induced chemotaxis (migrated cells as percentage of the input, average) (HL60 cells [1]): 4.31%
phosphorylation level of AKT compared to vehicle-treated cells (PI3K and MAPK pathways): lower phosphorylation levels
phosphorylation level of ERK compared to vehicle-treated cells (PI3K and MAPK pathways): lower phosphorylation levels
protein level of cyclin D1 compared to vehicle-treated cells (PI3K and MAPK pathways): reduced protein level
reduced cell growth compared to vehicle treated cells (KG1a cells; 2D culture with HS-5 stromal cells): 2.63 fold decrease
reduced cell growth compared to vehicle treated cells (KG1a cells; monoculture): 1.37 fold decrease
reduced cell growth compared to vehicle treated cells (HL60 cells [2]; HL60, 2D culture with HS-5 stromal cells): 1.56 fold decrease
reduced cell growth compared to vehicle treated cells (HL60 cells [2]; HL60, monoculture): 1.22 fold decrease
CXCL12-induced chemotaxis (migrated cells as percentage of the input, average) (U937 cells): 40.35%
